Measurements from PubChem BioAssay (NCI).
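Where inhibition never reached the appropriate level, the endpoint shown equals the highest concentration tested. Otherwise, values were interpolated linearly from a five-concentration, 48-hour dose response in 96-well plates. Abbreviation: GI50, concentration required for 50% inhibition of growth. The concentration for full growth arrest is given as TGI.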

Columns and labels:
Assay in all cases: DTP human tumour cell line panel, 48 h
SNB-75 CNS = system: SNB-75 CNS
SF-295 CNS = system: SF-295 CNS
HL-60(TB) leukemia = system: HL-60(TB) leukemia
NCI-H226 lung = system: NCI-H226 lung
OVCAR-5 ovarian = system: OVCAR-5 ovarian
NCI-H522 lung = system: NCI-H522 lung
HCC-2998 colon = system: HCC-2998 colon
SF-268 CNS = system: SF-268 CNS
UACC-257 melanoma = system: UACC-257 melanoma
A549 NSCLC = system: A549 NSCLC

SMILES | GI50 (SNB-75 CNS) [µM] | TGI (SNB-75 CNS) [µM] | GI50 (SF-295 CNS) [µM] | TGI (SF-295 CNS) [µM] | GI50 (HL-60(TB) leukemia) [µM] | TGI (HL-60(TB) leukemia) [µM] | GI50 (NCI-H226 lung) [µM] | TGI (NCI-H226 lung) [µM] | GI50 (OVCAR-5 ovarian) [µM] | TGI (OVCAR-5 ovarian) [µM] | GI50 (NCI-H522 lung) [µM] | TGI (NCI-H522 lung) [µM] | GI50 (HCC-2998 colon) [µM] | TGI (HCC-2998 colon) [µM] | GI50 (SF-268 CNS) [µM] | TGI (SF-268 CNS) [µM] | GI50 (UACC-257 melanoma) [µM] | TGI (UACC-257 melanoma) [µM] | GI50 (A549 NSCLC) [µM] | TGI (A549 NSCLC) [µM]
Nc1nc(-c2cccc(Cl)c2)c(-c2ccc3ncccc3n2)s1 | > 25 | > 25 | > 25 | > 25 | > 25 | > 25 | > 22 | > 25 | > 25 | > 25 | > 25 | > 25 | > 25 | > 25 | > 25 | > 25 | > 25 | > 25 | > 25 | > 25
N#Cc1cccc(NC(=O)c2cc(-c3ccc(F)cc3F)ccc2O)c1 | 2.08 | 8.05 | 2.16 | 5.19 | 2.17 | 5.6 | 1.67 | 6.43 | 3.2 | 25.5 | 1.64 | 12.1 | 2.97 | 10.1 | 3.11 | > 100 | 1.53 | 5.84 | 3.09 | 28.4
COC(=O)C12C3C4C1C1C2C3C41NC(=O)c1csc([C@@H](C[C@H](C(C)C)N(C)C(=O)[C@@H](NC(=O)[C@H]2CCCCN2C)C2CC2)OC(C)=O)n1 (stereo partly drawn) | 0.00595 | > 33.3 | 0.0476 | > 33.3 | 0.00356 | 0.00777 | 0.395 | > 33.3 | 0.294 | > 33.3 | 0.00401 | 1.27 | 0.146 | > 33.3 | 0.0356 | > 33.3 | > 16.6 | > 33.3 | 0.157 | > 33.3
COC(=O)C(=O)C(C(=O)C=C(C)C)C(=O)C(=O)Nc1ccc(C)cc1C (stereo not drawn) | – | > 100 | – | > 100 | – | > 100 | – | > 100 | – | > 100 | – | > 100 | – | > 100 | – | > 100 | – | > 100 | – | > 100
CCCS(=O)(=O)/C(=C(\c1ccc(Br)cc1)S(=O)(=O)CCC)c1ccc(Br)cc1 | – | > 10 | – | > 10 | – | > 10 | – | > 10 | – | > 10 | – | > 10 | – | > 10 | – | > 10 | – | > 10 | – | > 10
Cc1nc(-c2ccccc2)c(-c2ccccc2)s1 | – | > 100 | – | > 100 | – | 28.5 | – | 42.7 | – | > 100 | – | 37.7 | – | 25.3 | – | 78.6 | – | 79.9 | – | 89
Nc1ncn(C2CC(O)C(CO)O2)c(=O)n1 (stereo not drawn) | – | > 288 | – | 247 | – | 103 | – | > 331 | – | > 375 | – | 218 | – | > 375 | – | > 375 | – | 131 | – | > 375
CC(=O)O.[Au].c1ccc([PH+](c2ccccc2)c2ccccc2)cc1 | 8.1 | 20.5 | 2.89 | > 100 | 0.0578 | 0.266 | 6.59 | 19.1 | 14.4 | 28.6 | 0.526 | 1.96 | 7 | 15.2 | 3.05 | 11.5 | 1.82 | 5.68 | 18.8 | 66.1
Cc1nc2ccccc2c(=O)n1-c1ccccc1F | – | > 100 | – | > 100 | – | > 100 | – | > 100 | – | > 100 | – | > 100 | – | > 100 | – | > 100 | – | > 100 | – | > 100
C=C1C(=O)O[C@H]2[C@H]1CC/C(COC(=O)c1cc3ccccc3s1)=C\CC[C@@]1(C)O[C@@H]21 | 3.52 | 13.4 | 3.33 | 12.8 | 1.89 | 5.53 | 2 | 4.63 | 2.02 | 4.35 | 0.987 | 2.34 | 1.75 | 3.23 | 1.54 | 3.24 | 1.77 | 3.61 | 2.04 | 4.4
COc1cc2c3c(n(C)c(=O)c2cc1OC)-c1cc2c(cc1/C3=C\CNCCCN)OCO2 | 0.923 | 9.47 | 1.08 | 15.9 | 0.171 | 0.782 | 0.0753 | 0.797 | 1.28 | 18.9 | 0.348 | – | 0.501 | 1.99 | 0.762 | 10.8 | 0.907 | 2.76 | 1.43 | > 25.1
N#C/C(=C\c1cc2ccccc2c2ccccc12)c1ccccc1 | – | 10.9 | – | 19.9 | – | 14.8 | – | > 100 | – | 98.6 | – | > 29.9 | – | 59.2 | – | > 53.9 | – | > 89 | – | > 100
COc1cc(NS(=O)(=O)c2ccc(-c3cnc(C4CC4)o3)cc2)ccc1F | 0.158 | 0.604 | 0.205 | 1.46 | 0.247 | 6.86 | 1.24 | 22.1 | 1.15 | 29.5 | 0.316 | 11.8 | 1.09 | 12.7 | 2.65 | 30.7 | 2.43 | 33.9 | 0.826 | > 45.8
COC(=O)c1c(C)[nH]c(/C=C2\N=C(c3ccc[nH]3)C=C2OC)c1C | 0.399 | 3.24 | 0.983 | 3.44 | 0.164 | 2.33 | 1.66 | 7.92 | 1.4 | 3.9 | 0.367 | 2.44 | 0.668 | 2.78 | 0.26 | > 100 | 0.339 | 1.52 | 0.387 | –
